Literature values, collected in patent US20250231185A1, “Coronavirus T Cell Epitopes, Megapools and Uses Thereof” (La Jolla Institute for Immunology, priority 2021, published 2025).
Read-outs that look alike come from different tables or passages of the source.

Test system: CD8+ T cells
Conditions: cited from earlier work
[1] = CD8RE megapool peptides (non-spike SARS-CoV-2 antigens), dominant epitope Yes/No
[2] = T cell subset (CD4 or CD8) recognizing the SARS-CoV-2-derived epitope
[3] = T cell type (CD4 or CD8) recognizing the SARS-CoV-2 epitope
[4] = SARS-CoV-2 Ag S, T cell type recognizing the epitope
[5] = CD8R (D) megapool epitopes, dominant = recognized by 3 or more donors/different studies
[6] = SARS-CoV-2-derived CD8 epitopes, dominant = recognized by 3 or more donors/different studies

3008 (FLPRVFSAV) [compound 3008]
Dominant [1]: Yes (more dominant epitopes are defined by being recognized by 3 or more donors/different studies)

663 (FLGRYMSAL) [compound 663]
Restriction [2]: CD8

2905 (FLFLTWICL) [compound 2905]
Dominant [1]: Yes (more dominant epitopes are defined by being recognized by 3 or more donors/different studies)

1094 (SSEAFLIGCNY) [compound 1094]
Restriction [3]: CD8

1384 (LPPLLTDEM) [compound 1384]
Restriction [4]: CD8

1769 (ILFTRFFYV) [compound 1769]
Dominant [5]: Yes (more dominant epitopes are defined by being recognized by 3 or more donors/different studies)

1305 (YNYLYRLFR) [compound 1305]
Restriction [4]: CD8

1001 (LVKQGDDYVY) [compound 1001]
Restriction [3]: CD8

938 (SLLMPILTL) [compound 938]
Restriction [3]: CD8

1682 (NTASWFTAL) [compound 1682]
Dominant [5]: Yes (more dominant epitopes are defined by being recognized by 3 or more donors/different studies)

1436 (FPREGVFV) [compound 1436]
Restriction [4]: CD8

562 (VPHVGEIPV) [compound 562]
Restriction [2]: CD8

2998 (QEILGTVSW) [compound 2998]
Dominant [1]: Yes (more dominant epitopes are defined by being recognized by 3 or more donors/different studies)

613 (GADPIHSLR) [compound 613]
Restriction [2]: CD8

978 (IAATRGATV) [compound 978]
Restriction [3]: CD8

546 (KLDDKDPNF) [compound 546]
Restriction [2]: CD8

3013 (TPKYKFVRI) [compound 3013]
Dominant [1]: Yes (more dominant epitopes are defined by being recognized by 3 or more donors/different studies)

1354 (LGAENSVAY) [compound 1354]
Restriction [4]: CD8

683 (ITDVFYKENSY) [compound 683]
Dominant [6]: Yes (more dominant epitopes are defined by being recognized by 3 or more donors/different studies)
Restriction [2]: CD8

2972 (SSNVANYQK) [compound 2972]
Dominant [1]: Yes (more dominant epitopes are defined by being recognized by 3 or more donors/different studies)

1322 (FELLHAPATV) [compound 1322]
Restriction [4]: CD8

501 (LSPRWYFYYL) [compound 501]
Dominant [6]: Yes (more dominant epitopes are defined by being recognized by 3 or more donors/different studies)
Restriction [2]: CD8

1813 (KLFIRQEEV) [compound 1813]
Dominant [5]: Yes (more dominant epitopes are defined by being recognized by 3 or more donors/different studies)

3042 (LLYDANYFL) [compound 3042]
Dominant [1]: Yes (more dominant epitopes are defined by being recognized by 3 or more donors/different studies)

3003 (ASMPTTIAK) [compound 3003]
Dominant [1]: Yes (more dominant epitopes are defined by being recognized by 3 or more donors/different studies)

2980 (ALLADKFPV) [compound 2980]
Dominant [1]: Yes (more dominant epitopes are defined by being recognized by 3 or more donors/different studies)

2910 (SMWSFNPET) [compound 2910]
Dominant [1]: Yes (more dominant epitopes are defined by being recognized by 3 or more donors/different studies)

1338 (RVYSTGSNV) [compound 1338]
Restriction [4]: CD8

650 (NLKTLLSL) [compound 650]
Restriction [2]: CD8

668 (WKYPQVNGL) [compound 668]
Restriction [2]: CD8

1300 (KVGGNYNYLY) [compound 1300]
Restriction [4]: CD8

2923 (LSPRWYFYYL) [compound 2923]
Dominant [1]: Yes (more dominant epitopes are defined by being recognized by 3 or more donors/different studies)

691 (YYKKDNSY) [compound 691]
Restriction [2]: CD8

609 (VVVNAANVY) [compound 609]
Restriction [2]: CD8

1391 (WTFGAGAAL) [compound 1391]
Restriction [4]: CD8

1039 (YVFCTVNAL) [compound 1039]
Restriction [3]: CD8

1015 (SRYWEPEF) [compound 1015]
Restriction [3]: CD8

1695 (LLLLDRLNQL) [compound 1695]
Dominant [5]: Yes (more dominant epitopes are defined by being recognized by 3 or more donors/different studies)

537 (SASAFFGMSR) [compound 537]
Restriction [2]: CD8

3006 (QLMCQPILLL) [compound 3006]
Dominant [1]: Yes (more dominant epitopes are defined by being recognized by 3 or more donors/different studies)

3023 (SMWALIISV) [compound 3023]
Dominant [1]: Yes (more dominant epitopes are defined by being recognized by 3 or more donors/different studies)

657 (LRVEAFEYY) [compound 657]
Restriction [2]: CD8

983 (NMLRIMASL) [compound 983]
Restriction [3]: CD8

1703 (GMSRIGMEV) [compound 1703]
Dominant [5]: Yes (more dominant epitopes are defined by being recognized by 3 or more donors/different studies)

1011 (YADVFHLYL) [compound 1011]
Restriction [3]: CD8

1045 (ILGLPTQTV) [compound 1045]
Restriction [3]: CD8

929 (VPHISRQRL) [compound 929]
Restriction [3]: CD8

638 (VVDYGARFY) [compound 638]
Restriction [2]: CD8

1671 (NRFLYIIKL) [compound 1671]
Dominant [5]: Yes (more dominant epitopes are defined by being recognized by 3 or more donors/different studies)

3025 (SEFSSLPSY) [compound 3025]
Dominant [1]: Yes (more dominant epitopes are defined by being recognized by 3 or more donors/different studies)

601 (MELTPVVQTI) [compound 601]
Restriction [2]: CD8

2929 (LALLLLDRL) [compound 2929]
Dominant [1]: Yes (more dominant epitopes are defined by being recognized by 3 or more donors/different studies)

1311 (FERDISTEI) [compound 1311]
Restriction [4]: CD8

640 (VSSPDAVTAY) [compound 640]
Restriction [2]: CD8

1468 (VLKGVKLHY) [compound 1468]
Restriction [4]: CD8

648 (GEVITFDNL) [compound 648]
Restriction [2]: CD8

2901 (SLVKPSFYV) [compound 2901]
Dominant [1]: Yes (more dominant epitopes are defined by being recognized by 3 or more donors/different studies)

925 (KVAGFAKFL) [compound 925]
Restriction [3]: CD8

1683 (KFPRGQGVPI) [compound 1683]
Dominant [5]: Yes (more dominant epitopes are defined by being recognized by 3 or more donors/different studies)

2940 (MEVTPSGTWL) [compound 2940]
Dominant [1]: Yes (more dominant epitopes are defined by being recognized by 3 or more donors/different studies)

1800 (MDLFMRIFTI) [compound 1800]
Dominant [5]: Yes (more dominant epitopes are defined by being recognized by 3 or more donors/different studies)

1299 (DSKVGGNYNY) [compound 1299]
Restriction [4]: CD8

2937 (ASAFFGMSR) [compound 2937]
Dominant [1]: Yes (more dominant epitopes are defined by being recognized by 3 or more donors/different studies)

1430 (GVVFLHVTY) [compound 1430]
Restriction [4]: CD8

1400 (LSSTASALGK) [compound 1400]
Restriction [4]: CD8

531 (HWPQIAQF) [compound 531]
Restriction [2]: CD8

924 (FDIYNDKVAGF) [compound 924]
Restriction [3]: CD8

1459 (YEQYIKWPW) [compound 1459]
Restriction [4]: CD8

1803 (IVGVALLAVF) [compound 1803]
Dominant [5]: Yes (more dominant epitopes are defined by being recognized by 3 or more donors/different studies)

2959 (DTDFVNEFY) [compound 2959]
Dominant [1]: Yes (more dominant epitopes are defined by being recognized by 3 or more donors/different studies)

631 (KQEILGTVSW) [compound 631]
Restriction [2]: CD8

659 (HTTDPSFLGR) [compound 659]
Restriction [2]: CD8

1359 (IPTNFTISV) [compound 1359]
Restriction [4]: CD8

1801 (FVRATATIPI) [compound 1801]
Dominant [5]: Yes (more dominant epitopes are defined by being recognized by 3 or more donors/different studies)

2907 (TLACFVLAAV) [compound 2907]
Dominant [1]: Yes (more dominant epitopes are defined by being recognized by 3 or more donors/different studies)

2941 (ILLNKHIDA) [compound 2941]
Dominant [1]: Yes (more dominant epitopes are defined by being recognized by 3 or more donors/different studies)

1787 (KLKDCVMYA) [compound 1787]
Dominant [5]: Yes (more dominant epitopes are defined by being recognized by 3 or more donors/different studies)

541 (MEVTPSGTW) [compound 541]
Dominant [6]: Yes (more dominant epitopes are defined by being recognized by 3 or more donors/different studies)
Restriction [2]: CD8

957 (FAVSKGFFK) [compound 957]
Restriction [3]: CD8

3004 (ILFTRFFYV) [compound 3004]
Dominant [1]: Yes (more dominant epitopes are defined by being recognized by 3 or more donors/different studies)

1030 (APTLVPQEHYV) [compound 1030]
Restriction [3]: CD8

548 (LLNKHIDAY) [compound 548]
Restriction [2]: CD8

1097 (FWRNTNPIQL) [compound 1097]
Restriction [3]: CD8

1808 (FTSDYYQLY) [compound 1808]
Dominant [5]: Yes (more dominant epitopes are defined by being recognized by 3 or more donors/different studies)

987 (MASLVLARK) [compound 987]
Restriction [3]: CD8

937 (DAMRNAGIV) [compound 937]
Restriction [3]: CD8

578 (EIKESVQTF) [compound 578]
Restriction [2]: CD8

2922 (KMKDLSPRW) [compound 2922]
Dominant [1]: Yes (more dominant epitopes are defined by being recognized by 3 or more donors/different studies)

3017 (VLAWLYAAV) [compound 3017]
Dominant [1]: Yes (more dominant epitopes are defined by being recognized by 3 or more donors/different studies)
